This is an account of results in publication PMC3954873, “Enhanced Thermal Stability and Hydrolytic Ability of Bacillus subtilis Aminopeptidase by Removing the Thermal Sensitive Domain in the Non-Catalytic Region” (PLoS ONE, 2014).

One experiment addresses T1, BSAP (Bacillus subtilis, UniProt P25152).
T1 construct: gene ywaD; host B. subtilis WB600; purified as in previous study
In words: steady-state hydrolysis kinetics, non-linear regression. As to conditions: free enzyme; assay as in previous study, conditions not printed here. It is filed as biochemical. The text has this: steady-state hydrolysis kinetics, non-linear regression on BSAP

The target in another experiment is T2, BSAP-ΔPA (Bacillus subtilis, UniProt P25152, DEL101-225, form not given).
T2 construct: gene ywaD; protease-associated domain (101-225) deleted by inverse PCR; 330 residues before signal peptide removal; plasmid PMA5, host B. subtilis WB600; purified from culture supernatant
Described as above. It is filed as biochemical. As to conditions: free enzyme; assay as in previous study, conditions not printed here. From the text:
steady-state hydrolysis kinetics, non-linear regression on BSAP-ΔPA

T2 sequence (P25152 other isoform, or with tags, fused parts or gaps DEL101-225): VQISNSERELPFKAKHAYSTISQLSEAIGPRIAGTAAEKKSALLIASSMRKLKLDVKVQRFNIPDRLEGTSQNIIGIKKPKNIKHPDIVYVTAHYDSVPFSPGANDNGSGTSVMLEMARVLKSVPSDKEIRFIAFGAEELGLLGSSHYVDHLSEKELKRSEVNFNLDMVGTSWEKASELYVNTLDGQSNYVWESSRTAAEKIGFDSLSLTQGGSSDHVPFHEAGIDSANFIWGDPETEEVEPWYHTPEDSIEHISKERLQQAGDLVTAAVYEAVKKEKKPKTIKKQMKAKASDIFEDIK
T1 sequence (P25152 32-455): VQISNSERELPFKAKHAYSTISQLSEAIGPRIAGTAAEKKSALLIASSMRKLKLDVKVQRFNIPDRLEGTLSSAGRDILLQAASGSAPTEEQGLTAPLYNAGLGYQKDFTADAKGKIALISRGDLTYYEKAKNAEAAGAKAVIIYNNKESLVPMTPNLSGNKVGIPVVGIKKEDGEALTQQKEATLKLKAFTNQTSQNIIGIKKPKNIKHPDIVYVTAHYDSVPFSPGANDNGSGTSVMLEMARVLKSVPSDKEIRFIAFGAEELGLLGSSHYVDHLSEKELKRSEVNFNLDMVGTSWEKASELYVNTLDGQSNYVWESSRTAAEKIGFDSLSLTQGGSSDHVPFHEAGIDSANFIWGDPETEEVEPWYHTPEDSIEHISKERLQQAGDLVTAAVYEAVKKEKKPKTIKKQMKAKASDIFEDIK

As for `CC(C)C[C@H](N)C(=O)Nc1ccc([N+](=O)[O-])cc1` [Leu-pNA], the “K m” value is 2.52 ± 0.11 mmol at BSAP and 2.43 ± 0.23 mmol on BSAP-ΔPA.
